Measured values taken from patent US6573275B1, “Bicyclic amines” (Syngenta Limited, priority 1995, dated 2003).

Test system: peach aphid (Myzus persicae)
Test: Insecticidal test against peach aphid, infested Chinese cabbage leaves sprayed
Assay type: in vivo
Details: peach aphid (Myzus persicae) on Chinese cabbage leaves, sprayed with 500 ppm composition unless otherwise stated, mortality assessed after 3 days
In short: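 Aphid-infested Chinese cabbage leaves were sprayed with compound at 500 ppm unless otherwise stated, formulated in acetone/ethanol diluted with water containing 0.05% Synperonic NP8. Mortality was assessed after 3 days.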

With `N#CC1(c2cncc(Cl)c2)CC2CCC(C1)N2Cc1ccc(F)cc1` (stereo not drawn) [Compound 254] as the molecule, how does the “Score (grading of mortality)” value read?
Its value is “A (A indicates 80-100% mortality)”.

With `N#CC1(c2cncc(Cl)c2)CC2CCC(C1)N2Cc1cccc(C(F)(F)F)c1` (stereo not drawn) [Compound 255] as the molecule, how does the “Score (grading of mortality)” value read?
The value was “A (A indicates 80-100% mortality)”.

`N#CC1(c2cncc(Cl)c2)CC2CCC(C1)N2Cc1ccc(C(F)(F)F)cc1` (stereo not drawn) [Compound 256] was tested. Which “Score (grading of mortality)” value did it give?
The value was “A (A indicates 80-100% mortality)”.

How did the “Score (grading of mortality)” value turn out when `N#CC1(c2cncc(Cl)c2)CC2CCC(C1)N2Cc1cccc(Cl)c1F` (stereo not drawn) [Compound 257] was run?
The value was “A (A indicates 80-100% mortality)”.

`N#CC1(c2cncc(Cl)c2)CC2CCC(C1)N2Cc1c(F)ccc(F)c1Cl` (stereo not drawn) [Compound 258] was tested. Which “Score (grading of mortality)” value did it give?
Its value is “A (A indicates 80-100% mortality)”.

For `N#CC1(c2cncc(Cl)c2)CC2CCC(C1)N2Cc1ccccc1Cl` (stereo not drawn) [Compound 259], which “Score (grading of mortality)” value is on record?
The value was “A (A indicates 80-100% mortality)”.

With `N#CC1(c2cncc(Cl)c2)CC2CCC(C1)N2Cc1c(Cl)cccc1Cl` (stereo not drawn) [Compound 260] as the molecule, how does the “Score (grading of mortality)” value read?
Its value is “A (A indicates 80-100% mortality)”.

`N#CC1(c2cncc(Cl)c2)CC2CCC(C1)N2Cc1cccc(Cl)c1` (stereo not drawn) [Compound 261] was tested. Which “Score (grading of mortality)” value did it give?
Its value is “A (A indicates 80-100% mortality)”.

`N#CC1(c2cncc(Cl)c2)CC2CCC(C1)N2Cc1ccc(F)cc1I` (stereo not drawn) [Compound 262] was tested. Which “Score (grading of mortality)” value did it give?
The value was “A (A indicates 80-100% mortality)”.

`Cc1cccc(CN2C3CCC2CC(C#N)(c2cncc(Cl)c2)C3)c1F` (stereo not drawn) [Compound 263] was tested. Which “Score (grading of mortality)” value did it give?
The value was “A (A indicates 80-100% mortality)”.

How did the “Score (grading of mortality)” value turn out when `N#CC1(c2cncc(Cl)c2)CC2CCC(C1)N2Cc1ccccc1N1C(=O)CCC1=O` (stereo not drawn) [Compound 264] was run?
The value was “A (A indicates 80-100% mortality)”.

`N#CC1(c2cncc(Cl)c2)CC2CCC(C1)N2Cc1cc(C(F)(F)F)ccc1F` (stereo not drawn) [Compound 265] was tested. Which “Score (grading of mortality)” value did it give?
Its value is “A (A indicates 80-100% mortality)”.

How did the “Score (grading of mortality)” value turn out when `N#CC1(c2cncc(Cl)c2)CC2CCC(C1)N2Cc1ccccc1-c1ccccc1` (stereo not drawn) [Compound 266] was run?
Its value is “A (A indicates 80-100% mortality)”.

Which “Score (grading of mortality)” value does the source give for `N#Cc1ccccc1CN1C2CCC1CC(C#N)(c1cncc(Cl)c1)C2` (stereo not drawn) [Compound 267] here?
The value was “A (A indicates 80-100% mortality)”.

`N#CC1(c2cncc(Cl)c2)CC2CCC(C1)N2Cc1cccc(Oc2ccc(F)cc2)c1` (stereo not drawn) [Compound 269] was tested. Which “Score (grading of mortality)” value did it give?
Its value is “A (A indicates 80-100% mortality)”.

With `N#Cc1ccc(CN2C3CCC2CC(C#N)(c2cncc(Cl)c2)C3)cc1` (stereo not drawn) [Compound 270] as the molecule, how does the “Score (grading of mortality)” value read?
The value was “A (A indicates 80-100% mortality)”.

Which “Score (grading of mortality)” value does the source give for `N#CC1(c2cncc(Cl)c2)CC2CCC(C1)N2Cc1ccc(F)c(F)c1F` (stereo not drawn) [Compound 271] here?
Its value is “A (A indicates 80-100% mortality)”.

How did the “Score (grading of mortality)” value turn out when `N#CC1(c2cncc(Cl)c2)CC2CCC(C1)N2Cc1ccccc1[N+](=O)[O-]` (stereo not drawn) [Compound 272] was run?
Its value is “A (A indicates 80-100% mortality)”.

Which “Score (grading of mortality)” value does the source give for `N#CC1(c2cncc(Cl)c2)CC2CCC(C1)N2Cc1c(F)cccc1[N+](=O)[O-]` (stereo not drawn) [Compound 273] here?
Its value is “A (A indicates 80-100% mortality)”.

For `N#CC1(c2cncc(Cl)c2)CC2CCC(C1)N2Cc1cccc([N+](=O)[O-])c1` (stereo not drawn) [Compound 274], which “Score (grading of mortality)” value is on record?
Its value is “A (A indicates 80-100% mortality)”.

How did the “Score (grading of mortality)” value turn out when `N#CC1(c2cncc(Cl)c2)CC2CCC(C1)N2Cc1ccc([N+](=O)[O-])cc1` (stereo not drawn) [Compound 275] was run?
The value was “A (A indicates 80-100% mortality)”.

For `CC(C)CN1C2CCC1CC(C#N)(c1cncc(Cl)c1)C2` (stereo not drawn) [Compound 276], which “Score (grading of mortality)” value is on record?
The value was “A (A indicates 80-100% mortality)”.

With `CCCCCCCCCCN1C2CCC1CC(C#N)(c1cncc(Cl)c1)C2` (stereo not drawn) [Compound 277] as the molecule, how does the “Score (grading of mortality)” value read?
Its value is “A (A indicates 80-100% mortality)”.

How did the “Score (grading of mortality)” value turn out when `N#CC1(c2cncc(Cl)c2)CC2CCC(C1)N2CCOc1ccccc1` (stereo not drawn) [Compound 278] was run?
The value was “A (A indicates 80-100% mortality)”.

How did the “Score (grading of mortality)” value turn out when `CCOCCN1C2CCC1CC(C#N)(c1cncc(Cl)c1)C2` (stereo not drawn) [Compound 279] was run?
The value was “A (A indicates 80-100% mortality)”.

For `CC(C)CCN1C2CCC1CC(C#N)(c1cncc(Cl)c1)C2` (stereo not drawn) [Compound 280], which “Score (grading of mortality)” value is on record?
Its value is “A (A indicates 80-100% mortality)”.

How did the “Score (grading of mortality)” value turn out when `COC(=O)CCCN1C2CCC1CC(C#N)(c1cncc(Cl)c1)C2` (stereo not drawn) [Compound 281] was run?
The value was “A (A indicates 80-100% mortality)”.

How did the “Score (grading of mortality)” value turn out when `N#CC1(c2cncc(Cl)c2)CC2CCC(C1)N2CCCc1ccccc1` (stereo not drawn) [Compound 282] was run?
Its value is “A (A indicates 80-100% mortality)”.

For `N#CC1(c2cncc(Cl)c2)CC2CCC(C1)N2CC1CCCCC1` (stereo not drawn) [Compound 283], which “Score (grading of mortality)” value is on record?
The value was “A (A indicates 80-100% mortality)”.

For `N#CCCN1C2CCC1CC(C#N)(c1cncc(Cl)c1)C2` (stereo not drawn) [Compound 284, exo-3-(5-chloropyrid-3-yl)-endo-3-cyano-8-(2-cyanoethyl)-8-azabicyclo[3.2.1]octane], which “Score (grading of mortality)” value is on record?
Its value is “A (A indicates 80-100% mortality)”.

`N#CCCCN1C2CCC1CC(C#N)(c1cncc(Cl)c1)C2` (stereo not drawn) [Compound 285] was tested. Which “Score (grading of mortality)” value did it give?
Its value is “A (A indicates 80-100% mortality)”.

Which “Score (grading of mortality)” value does the source give for `CC(O)CN1C2CCC1CC(C#N)(c1cncc(Cl)c1)C2` (stereo not drawn) [Compound 286] here?
Its value is “A (A indicates 80-100% mortality)”.

With `C=CC(=O)OCCN1C2CCC1CC(C#N)(c1cncc(Cl)c1)C2` (stereo not drawn) [Compound 287] as the molecule, how does the “Score (grading of mortality)” value read?
Its value is “A (A indicates 80-100% mortality)”.

Which “Score (grading of mortality)” value does the source give for `COCCN1C2CCC1CC(C#N)(c1cncc(Cl)c1)C2` (stereo not drawn) [Compound 288] here?
Its value is “A (A indicates 80-100% mortality)”.

How did the “Score (grading of mortality)” value turn out when `N#CC1(c2cncc(Cl)c2)CC2CCC(C1)N2CC1CCCCO1` (stereo not drawn) [Compound 289] was run?
Its value is “A (A indicates 80-100% mortality)”.

For `CC(CO)CN1C2CCC1CC(C#N)(c1cncc(Cl)c1)C2` (stereo not drawn) [Compound 290], which “Score (grading of mortality)” value is on record?
Its value is “A (A indicates 80-100% mortality)”.

`N#CC1(c2cncc(Cl)c2)CC2CCC(C1)N2CP(=O)(O)O` (stereo not drawn) [Compound 292, exo-3-(5-chloropyrid-3-yl)-endo-3-cyano-8-phosphonomethyl-8-azabicyclo[3.2.1]octane] was tested. Which “Score (grading of mortality)” value did it give?
Its value is “A (A indicates 80-100% mortality)”.

For `C[N+]1([O-])C2CCC1CC(C#N)(c1cncc(Cl)c1)C2` (stereo not drawn) [Compound 293], which “Score (grading of mortality)” value is on record?
The value was “A (A indicates 80-100% mortality)”.

How did the “Score (grading of mortality)” value turn out when `CC(C)(C)OC(=O)N1C2CCC1CC(C#N)(c1cncc(Cl)c1)C2` (stereo not drawn) [Compound 294] was run?
Its value is “A (A indicates 80-100% mortality)”.

With `CON1C2CCC1CC(C#N)(c1cncc(Cl)c1)C2` (stereo not drawn) [Compound 296, exo-3-(5-chloropyrid-3-yl)-endo-3-cyano-8-methoxy-8-azabicyclo[3.2.1]octane] as the molecule, how does the “Score (grading of mortality)” value read?
Its value is “A (A indicates 80-100% mortality)”.

With `N#CC1(c2ccnc(Cl)n2)CC2CCC(C1)N2CC(F)(F)F` (stereo not drawn) [Compound 297] as the molecule, how does the “Score (grading of mortality)” value read?
The value was “A (A indicates 80-100% mortality)”.

With `C=COC(=O)N1C2CCC1CC(C#N)(c1cncc(Cl)n1)C2` (stereo not drawn) [Compound 298] as the molecule, how does the “Score (grading of mortality)” value read?
Its value is “A (A indicates 80-100% mortality)”.

With `N#CC1(c2cncc(Cl)n2)CC2CCC(C1)N2` (stereo not drawn) [Compound 299] as the molecule, how does the “Score (grading of mortality)” value read?
The value was “A (A indicates 80-100% mortality)”.

With `N#CC1(c2cncc(Cl)n2)CC2CCC(C1)N2Cc1cccc(Cl)c1` (stereo not drawn) [Compound 300] as the molecule, how does the “Score (grading of mortality)” value read?
Its value is “A (A indicates 80-100% mortality)”.

With `N#CCN1C2CCC1CC(C#N)(c1cncc(Cl)n1)C2` (stereo not drawn) [Compound 301] as the molecule, how does the “Score (grading of mortality)” value read?
Its value is “A (A indicates 80-100% mortality)”.

`CC(c1cccc(Cl)c1)N1C2CCC1CC(C#N)(c1cncc(Cl)c1)C2` (stereo not drawn) [Compound 302] was tested. Which “Score (grading of mortality)” value did it give?
Its value is “A (A indicates 80-100% mortality)”.

For `CN1C2CCC1CC(C#N)(c1cncc(C#N)c1)C2` (stereo not drawn) [Compound 304], which “Score (grading of mortality)” value is on record?
Its value is “A (A indicates 80-100% mortality)”.

`C=COC(=O)N1C2CCC1CC(C#N)(c1cncc(I)c1)C2` (stereo not drawn) [Compound 309, exo-3-(5-iodopyrid-3-yl)-endo-3-cyano-8-(vinyloxycarbonyl)-8-azabicyclo[3.2.1]octane] was tested. Which “Score (grading of mortality)” value did it give?
Its value is “A (A indicates 80-100% mortality)”.
